Data taken from patent US9056851B2, “Thiolactone antibiotics” (priority 2011, dated 2015).
In brackets after ≈: the same amount, converted by molar mass. Like-named read-outs stand apart in the source and are kept apart here.

How the values were obtained:
M. tuberculosis H37Rv = assay: MIC against M. tuberculosis; type: cell-based; settings: Mycobacterium tuberculosis, read-out: MIC (μg/ml) M. tb (MIC99)
F. tularensis LVS = assay: microbe, parasite or virus in culture; type: cell-based; settings: Francisella tularensis, read-out: MIC (μg/ml) F. tu
Y. pestis A1122 = assay: microbe, parasite or virus in culture; type: cell-based; settings: Yersinia pestis, A1122, read-out: MIC (μg/ml) Y. pestis
B. thialandensis Bt38 = assay: MIC against B. thialandensis; type: cell-based; settings: read-out: MIC (μg/ml) B. thialandensis Bt.38 (efflux^−)
S. aureus RN4220 = assay: MIC against S. aureus RN4220 (MSSA); type: cell-based; settings: Staphylococcus aureus
S. aureus BAA1762 = assay: MIC against S. aureus BAA1762 (MRSA); type: cell-based; settings: Staphylococcus aureus, read-out: MIC (μg/ml) Staph. aureus BAA1762 MRSA
B. pseudomallei Bp82z66 = assay: microbe, parasite or virus in culture; type: cell-based; settings: Burkholderia pseudomallei, BP82Z66, read-out: MIC (μg/ml) B. pseudomallei
M. smegmatis MC^2155 = assay: MIC against M. smegmatis; type: cell-based; settings: Mycolicibacterium smegmatis, MC^2155, read-out: MIC (μg/ml) M. smeg
E. coli NIHJ = settings: cited from earlier work
E. coli No9 = settings: cited from earlier work
E. coli 11 = settings: cited from earlier work
Shigella sonnei T1 = settings: cited from earlier work
Shigella flexneri 2b T1 = settings: cited from earlier work
Salmonella enterides T-1 = settings: cited from earlier work
Salmonella typhi = settings: cited from earlier work
Salmonella paratyphi = settings: cited from earlier work
Serratia marcescens [1] = settings: cited from earlier work
Klebsiella pneumoniae [2] = settings: cited from earlier work
M. tuberculosis = settings: cited from earlier work
Staphylococcus aureus = settings: cited from earlier work
Pasteurella multocida = settings: cited from earlier work
bacteria of Table 4 = settings: broad range of bacteria (Table 4); cited from earlier work
Serratia marcescens [3] = settings: urinary tract and oral infections; cited from earlier work
Klebsiella pneumoniae [4] = settings: urinary tract and oral infections; cited from earlier work
mammalian FAS-I enzymes = settings: selectivity versus FAS-II KAS enzymes; cited from earlier work
[5] = rats, orally and by intramuscular injection; cited from earlier work
[6] = in vivo; cited from earlier work
[7] = in vivo; cited from earlier work; remark: listed apart in the source
[8] = MIC90, read-out: MIC (μg/ml) Staph. aureus RN4220 MSSA

Which results are given for `C=C/C(C)=C/[C@@]1(C)SC(=O)C(CCCCn2cc(CNC(=O)c3ccc(NS(=O)(=O)c4ccc(F)cc4)cc3)nn2)=C1O` [TLM34]?
MIC99 (M. tuberculosis H37Rv; MIC99, H37Rv): 12.5 µg/mL (≈ 20 µM); MIC (F. tularensis LVS): 250 µg/mL (≈ 400 µM); MIC (Y. pestis A1122): 250 µg/mL (≈ 400 µM); MIC (B. thialandensis Bt38): 250 µg/mL (≈ 400 µM); MIC (S. aureus RN4220; [8]): > 64 µg/mL; MIC (S. aureus BAA1762; MIC90): > 100 µg/mL

Which results are given for `C=C/C(C)=C/[C@@]1(C)SC(=O)C(C(C)=O)=C1O` [TLM35]?
MIC99 (M. tuberculosis H37Rv; MIC99, H37Rv): 12.5 µg/mL (≈ 52.5 µM); MIC (F. tularensis LVS): 8.78 µg/mL (≈ 36.8 µM); MIC (B. pseudomallei Bp82z66): 155 µg/mL (≈ 649 µM); MIC (S. aureus RN4220; [8]): 64 µg/mL (≈ 269 µM); MIC (S. aureus BAA1762; MIC90): 32 µg/mL (≈ 134 µM)

Which results are given for `C=C/C(C)=C/[C@@]1(C)SC(=O)C(C(=O)C(F)(F)F)=C1O` [TLM36]?
MIC99 (M. tuberculosis H37Rv; MIC99, H37Rv): > 100 µg/mL; MIC (F. tularensis LVS): 98.1 µg/mL (≈ 336 µM); MIC (B. pseudomallei Bp82z66): 160 µg/mL (≈ 547 µM); MIC (S. aureus RN4220; [8]): > 64 µg/mL; MIC (S. aureus BAA1762; MIC90): 64 µg/mL (≈ 219 µM)

What does the source list for `C=C/C(C)=C/[C@@]1(C)SC(=O)C(C(=O)OC)=C1O` [TLM37]?
MIC99 (M. tuberculosis H37Rv; MIC99, H37Rv): 100 µg/mL (≈ 393 µM); MIC (F. tularensis LVS): 58.2 µg/mL (≈ 229 µM); MIC (B. pseudomallei Bp82z66): 160 µg/mL (≈ 631 µM); MIC (S. aureus RN4220; [8]): > 64 µg/mL; MIC (S. aureus BAA1762; MIC90): > 64 µg/mL

Which MIC99 (M. tuberculosis H37Rv; MIC99, H37Rv) does the source give for `C=C/C(C)=C/[C@@]1(C)SC(=O)C(C(=O)CCC)=C1O` [TLM38] here?
The MIC99 was 12.5 µg/mL (≈ 46.9 µM).

What about the MIC (F. tularensis LVS) of the same compound?
The MIC was 1.82 µg/mL (≈ 6.83 µM).

What about the MIC (B. pseudomallei Bp82z66) of the same compound?
The MIC was 171 µg/mL (≈ 644 µM).

What about the MIC (S. aureus RN4220; [8]) of the same compound?
Its MIC is 16 µg/mL (≈ 60.1 µM).

And the MIC (S. aureus BAA1762; MIC90)?
Its MIC is 32 µg/mL (≈ 120 µM).

Which MIC99 (M. tuberculosis H37Rv; MIC99, H37Rv) does the source give for `C=C/C(C)=C/[C@@]1(C)SC(=O)C(C(=O)c2ccccc2C(=O)O)=C1O` [TLM39] here?
Its MIC99 is over 100 µg/mL.

What about the MIC (F. tularensis LVS) of the same compound?
Its MIC is 16 µg/mL (≈ 46.4 µM).

And the MIC (B. pseudomallei Bp82z66)?
The MIC was 155 µg/mL (≈ 449 µM).

And the MIC (S. aureus RN4220; [8])?
The MIC was 32 µg/mL (≈ 92.9 µM).

What about the MIC (S. aureus BAA1762; MIC90) of the same compound?
Its MIC is 32 µg/mL (≈ 92.9 µM).

What does the source list for `C=C/C(C)=C/[C@@]1(C)SC(=O)C=C1OCC(=O)NCCN=[N+]=[N-]` [TLM40]?
MIC99 (M. tuberculosis H37Rv; MIC99, H37Rv): > 100 µg/mL; MIC (F. tularensis LVS): 39.1 µg/mL (≈ 121 µM); MIC (B. pseudomallei Bp82z66): > 256 µg/mL; MIC (S. aureus RN4220; [8]): > 64 µg/mL; MIC (S. aureus BAA1762; MIC90): > 64 µg/mL

Which results are given for `C=C/C(C)=C/[C@@]1(C)SC(=O)C=C1OCC(=O)NCCNC(=O)OC(C)(C)C` [TLM41]?
MIC99 (M. tuberculosis H37Rv; MIC99, H37Rv): > 100 µg/mL; MIC (F. tularensis LVS): 54.5 µg/mL (≈ 137 µM); MIC (B. pseudomallei Bp82z66): > 256 µg/mL; MIC (S. aureus RN4220; [8]): > 64 µg/mL; MIC (S. aureus BAA1762; MIC90): > 64 µg/mL

For `C=C/C(C)=C/[C@@]1(C)SC(=O)C=C1OCC(=O)NCCn1cc(CNC(=O)c2ccc(NS(=O)(=O)c3ccc(F)cc3)cc2)nn1` [TLM42], which MIC99 (M. tuberculosis H37Rv; MIC99, H37Rv) is on record?
The MIC99 was 100 µg/mL (≈ 153 µM).

And the MIC (F. tularensis LVS)?
Its MIC is over 256 µg/mL.

And the MIC (B. pseudomallei Bp82z66)?
Its MIC is 178 µg/mL (≈ 272 µM).

What about the MIC (S. aureus RN4220; [8]) of the same compound?
Its MIC is over 64 µg/mL.

What about the MIC (S. aureus BAA1762; MIC90) of the same compound?
Its MIC is over 64 µg/mL.

For `C=C/C(C)=C/[C@@]1(C)SC(=O)C(C(=O)CCCCCCCCCCCCCCC)=C1O` [TLM43], which MIC99 (M. tuberculosis H37Rv; MIC99, H37Rv) is on record?
Its MIC99 is over 100 µg/mL.

And the MIC (B. pseudomallei Bp82z66)?
The MIC was 1.36 µg/mL (≈ 3.13 µM).

What about the MIC (S. aureus RN4220; [8]) of the same compound?
Its MIC is 0.5 µg/mL (≈ 1.15 µM).

And the MIC (S. aureus BAA1762; MIC90)?
Its MIC is 1 µg/mL (≈ 2.3 µM).

Which MIC (S. aureus RN4220; [8]) does the source give for `C=C/C(C)=C/[C@@]1(C)SC(=O)C(C(=O)CCCCN=[N+]=[N-])=C1O` [TLM44] here?
Its MIC is 16 µg/mL (≈ 49.8 µM).

And the MIC (S. aureus BAA1762; MIC90)?
The MIC was 16 µg/mL (≈ 49.8 µM).

With `C=C/C(C)=C/[C@@]1(C)SC(=O)C(C(=O)CCCCc2ccc(-c3ccccc3)cc2)=C1O` [TLM45] as the compound, how does the MIC99 (M. tuberculosis H37Rv; MIC99, H37Rv) read?
The MIC99 was 50 µg/mL (≈ 116 µM).

And the MIC (F. tularensis LVS)?
The MIC was 0.21 µg/mL (≈ 0.485 µM).

And the MIC (B. pseudomallei Bp82z66)?
Its MIC is 4.58 µg/mL (≈ 10.6 µM).

And the MIC (S. aureus RN4220; [8])?
The MIC was 0.5 µg/mL (≈ 1.16 µM).

And the MIC (S. aureus BAA1762; MIC90)?
The MIC was 2 µg/mL (≈ 4.62 µM).

With `C=C/C(C)=C/[C@@]1(C)SC(=O)C(C)=C1O` [TLM, 5R-(+)-Thiolactomycin] as the compound, how does the MIC (M. smegmatis MC^2155) read?
The MIC was 25 µg/mL (≈ 119 µM).

What about the MIC99 (M. tuberculosis H37Rv; H37RV) of the same compound?
Its MIC99 is 3.13 µg/mL (≈ 14.9 µM).

And the MIC (F. tularensis LVS)?
The MIC was 2.81 µg/mL (≈ 13.4 µM).

What about the MIC (Y. pestis A1122) of the same compound?
The MIC was 8.09 µg/mL (≈ 38.5 µM).

And the MIC (B. pseudomallei Bp82z66)?
Its MIC is 13.1 µg/mL (≈ 62.4 µM).

What about the MIC (S. aureus RN4220; read-out: MIC (μg/ml) Staph. aureus RN4220 MSSA) of the same compound?
Its MIC is 75 µg/mL (≈ 357 µM).

And the MIC (S. aureus BAA1762)?
Its MIC is 75 µg/mL (≈ 357 µM).

What about the “MIC” value (E. coli NIHJ) of the same compound?
The value was 200 µg/mL (≈ 951 µM).

What about the “MIC” value (E. coli No9) of the same compound?
The value was 100 µg/mL (≈ 476 µM).

And the “MIC” value (E. coli 11)?
The value was 25 µg/mL (≈ 119 µM).

What about the “MIC” value (Shigella sonnei T1) of the same compound?
The value was 100 µg/mL (≈ 476 µM).

What about the “MIC” value (Shigella flexneri 2b T1) of the same compound?
The value was 6.3 µg/mL (≈ 30 µM).

And the “MIC” value (Salmonella enterides T-1)?
The value was 12.5 µg/mL (≈ 59.4 µM).

What about the “MIC” value (Salmonella typhi) of the same compound?
The value was 12.5 µg/mL (≈ 59.4 µM).

What about the “MIC” value (Salmonella paratyphi) of the same compound?
The value was 50 µg/mL (≈ 238 µM).

What about the “MIC” value (Serratia marcescens [1]) of the same compound?
Its value is 100 µg/mL (≈ 476 µM).

And the “MIC” value (Klebsiella pneumoniae [2])?
Its value is 100 µg/mL (≈ 476 µM).

What about the “MIC” value (M. tuberculosis) of the same compound?
Its value is 25 µg/mL (≈ 119 µM).

And the “MIC” value (Staphylococcus aureus)?
The value was 25 µg/mL (≈ 119 µM).

What about the “MIC” value (Pasteurella multocida) of the same compound?
The value was 0.2 µg/mL (≈ 0.951 µM).

And the “MIC values, range over organisms” value (bacteria of Table 4)?
Its value is 6 to 200 µg/mL.

And the protection from infection (Serratia marcescens [3])?
The protection from infection was “provides protection”.

What about the protection from infection (Klebsiella pneumoniae [4]) of the same compound?
Its protection from infection is “provides protection”.

And the “inhibition of mammalian FAS-I enzymes” value (mammalian FAS-I enzymes)?
Its value is “does not inhibit”.

And the absorption [5]?
The absorption was “rapidly absorbed”.

What about the toxicity [6] of the same compound?
Its toxicity is “low toxicity”.

What about the bioavailability [7] of the same compound?
Its bioavailability is “high bioavailability”.
